Experimental data reported in patent publication US11827628B2, “Compositions and methods for inhibition of the JAK pathway” (Rigel Pharmaceuticals, Inc., priority 2005, dated 2023).
pIC50: −log10 of the molar value. Counter-ions that a name gives are not always drawn. Like-named read-outs stand apart in the source and are kept apart here.

Key:
[1] = system: up-regulation of ICAM-1 (CD54) by IFNγ in U937 human monocytic cells; experiment: U937 IFNγ ICAM1 FACS Assay; type: cell-based; conditions: U937 cells stimulated with IFNγ, ICAM-1 expression by FACS, read-out: IC50, Example 44
Method in brief: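 U937 cells in 10% FCS RPMI were preincubated 30 min at 37 °C with an 8-point, 3-fold compound dilution series in duplicate, then stimulated with IFNγ for 18–24 h. Surface ICAM-1 was stained with APC anti-ICAM-1 and read by flow cytometry as geometric mean on live-gated cells. EC50 was derived.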

[2] = system: IL-4 stimulated expression of CD23 in human Ramos B cells (JAK-1 and JAK-3); experiment: Assay for Ramos B-Cell Line Stimulated with IL-4 (CD23 upregulation, FACS); type: cell-based; conditions: read-out: IC50, Example 41
Method in brief: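 Log-phase Ramos cells, 1 h compound pre-incubation at 37 °C; IL-4 50 units/mL final, 20-24 h; CD23-PE stain, FACS; IC50.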

[3] = Ramos B cells stimulated with IL-4, CD23 expression by FACS
[4] = Ramos B-cell line stimulated with IL-4, CD23 expression by FACS

Compound	pIC50 [1]	pIC50 [2, 3]	pIC50 [2, 4]	further results
Cc1cc(COc2ccc(Nc3nc(Nc4ccc(C)c(S(N)(=O)=O)c4)ncc3F)cc2)n(C)n1 [Compound I-198, N2-(3-Aminosulfonyl-4-methylphenyl)-N4-[4-(1,3-dimethyl-(1H)-pyrazol-5-yl)methyleneoxyphenyl]-5-fluoro-2,4-pyrimidinediamine]	6.09		6.99	
CNS(=O)(=O)c1cc(Nc2ncc(F)c(Nc3ccc(Cn4ccnc4)cc3)n2)ccc1C [III-85, 5-Fluoro-N2-[3-(N-methylaminosulfony)-4-methylphenyl]-N4-[4-(1-imidazolylmethyl)phenyl]-2,4-pyrimidinediamine hydrochloride]				pIC50 ([1]; hydrochloride): 5.44; pIC50 ([2]; Ramos B-cell line stimulated with IL-4, CD23 expression by FACS, hydrochloride): 7.14
CNS(=O)(=O)c1cc(Nc2ncc(F)c(Nc3ccc(OCc4cccnc4)cc3)n2)ccc1C [Compound I-190, 5-Fluoro-N2-[3-(N-methylaminosulfony)-4-methylphenyl]-5-fluoro-N4-[4-(3-pyridinyl)methyleneoxyphenyl]-2,4-pyrimidinediamine]	5.82		6.84	
CN1CCN(c2ccc(Nc3ncc(F)c(Nc4ccc(OCC#N)c(F)c4)n3)cc2S(N)(=O)=O)CC1 [Compound I-10, N2-[3-Aminosulfonyl-4-(4-methylpiperazine-1-yl)phenyl]-5-fluoro-N4-(4-cyanomethyleneoxy-3-fluorophenyl)-2,4-pyrimidinediamine]	6.58		7.59	
Cc1ccc(Nc2nc(Nc3ccc(S(N)(=O)=O)cc3)ncc2F)cc1OCC(=O)N1CCOCC1 [Compound I-209, N2-(4-Aminosulfonylphenyl)-5-fluoro-N4-[4-methyl-3-(2-morpholinocarbonylmethyleneoxy)phenyl]-2,4-pyrimidinediamine]			6.24	
Cc1cc(Nc2nc(Nc3cccc(S(N)(=O)=O)c3)ncc2F)ccc1OC(C)C(N)=O (racemic) [Compound I-120, Racemic N4-[4-(1-Aminocarbonyl)ethoxy-3-methyl]phenyl-N2-(3-aminosulfonyl)phenyl-5-fluoro-2,4-pyrimidinediamine]	5.35		6.70	
N2-[3-Aminosulfonyl-4-(4-methylpiperazine-1-yl)phenyl]-N4-(3-cyanomethylene-1H-indol-7-yl)-5-fluoro-2,4-pyrimidinediamine [IX-18]	5.18	6.77		
Cc1ccc(Nc2ncc(F)c(Nc3ccc(OC(C)(C)C(N)=O)cc3)n2)cc1S(N)(=O)=O [Compound I-127, N4-[4-(1-Aminocarbonyl-1-methyl)ethoxy]phenyl-N2-(3-aminosulfonyl-4-methyl)phenyl-5-fluoro-2,4-pyrimidinediamine]	5.60		6.63	
N#CCn1ccc2cc(Nc3nc(Nc4cccc(S(N)(=O)=O)c4)ncc3F)ccc21 [IX-5, N2-(3-Aminosulfonylphenyl)-N4-(1-cyanomethyleneindol-5-yl)-5-fluoro-2,4-pyrimidinediamine]	5.73	7.53		
Cc1ccc(Nc2ncc(F)c(Nc3cc(C)c(OC(C)C(N)=O)c(C)c3)n2)cc1S(N)(=O)=O (racemic) [Compound I-124, Racemic N4-[4-(1-Aminocarbonyl)ethoxy-3,5-dimethyl]phenyl-N2-(3-aminosulfonyl-4-methyl)phenyl-5-fluoro-2,4-pyrimidinediamine]	5.88		6.99	
Cc1cnc(Nc2cccc(S(N)(=O)=O)c2)nc1Nc1ccc(OCc2ccccn2)cc1 [Compound I-179, N2-(3-Aminosulfonylphenyl)-5-methyl-N4-[4-(2-pyridinyl)methyleneoxyphenyl]-2,4-pyrimidinediamine]	6.93		7.61	
Cc1ccc(Nc2ncc(F)c(Nc3ccc4c(ccn4CC#N)c3)n2)cc1S(N)(=O)=O [IX-8, N2-(3-Aminosulfonyl-4-methylphenyl)-N4-(1-cyanomethyleneindol-5-yl)-5-fluoro-2,4-pyrimidinediamine]	6.27	7.33		
NS(=O)(=O)c1cccc(Nc2ncc(F)c(Nc3ccc(OCc4ccccn4)cc3)n2)c1 [Compound I-196, N2-(3-Aminosulfonylphenyl)-5-fluoro-N4-4-[(2-pyridinyl)methyleneoxyphenyl]-2,4-pyrimidinediamine Hydrochloride Salt]	6.12			pIC50 ([2]; Ramos B-cell line stimulated with IL-4, CD23 expression by FACS, Hydrochloride Salt): 6.90
Cc1cc(COc2ccc(Nc3nc(Nc4ccc(C)c(S(N)(=O)=O)c4)ncc3F)cc2)n(Cc2ccccc2)n1 [Compound I-199, N2-(3-Aminosulfonyl-4-methylphenyl)-N4-[4-(1-benzyl-3-methyl-(1H)-pyrazol-5-yl)methyleneoxyphenyl]-5-fluoro-2,4-pyrimidinediamine]	5.57		6.62	
Cc1cc(COc2cccc(Nc3nc(Nc4ccc(C)c(S(N)(=O)=O)c4)ncc3F)c2)no1 [Compound I-214]	5.88		6.84	
Cc1ccc(Nc2ncc(F)c(Nc3cccc(OCc4cccnc4)c3)n2)cc1S(N)(=O)=O [Compound I-183, N2-(3-Aminosulfonyl-4-methylphenyl)-5-fluoro-N4-[3-(3-pyridinyl)methyleneoxyphenyl]-2,4-pyrimidinediamine]	5.64		6.60	
Cc1ccc(Nc2ncc(F)c(Nc3ccc(OCc4ccncc4)cc3)n2)cc1S(N)(=O)=O [Compound I-194, N2-(3-Aminosulfonyl-4-methylphenyl)-5-fluoro-N4-[4-(4-pyridinyl)methyleneoxyphenyl]-2,4-pyrimidinediamine]			7.54	
N#CCn1ccc2cc(Nc3nc(Nc4ccc(S(N)(=O)=O)cc4)ncc3F)ccc21 [IX-6, N2-(4-Aminosulfonylphenyl)-N4-(1-cyanomethyleneindol-5-yl)-5-fluoro-2,4-pyrimidinediamine]		7.08		

Now from value to compound, other results behind:

pIC50 [1]	pIC50 [2, 3]	pIC50 [2, 4]	Compound	further results
5.90	6.82		COCCOc1ccc(Nc2nc(Nc3ccc(C)c(S(N)(=O)=O)c3)ncc2F)cc1 [VI-112, N2-(3-Aminosulfonyl-4-methylphenyl)-5-fluoro-N4-[4-(2-methoxyethyleneoxy)phenyl]-2,4-pyrimdinediamine]	
5.22	6.63		CS(=O)(=O)N1CCc2cc(Nc3nc(Nc4ccc(S(N)(=O)=O)cc4)ncc3F)ccc21 [VII-63]	
4.41	7.32		NC1CCOc2ccc(Nc3nc(Nc4ccc(S(N)(=O)=O)cc4)ncc3F)cc21 (stereo not shown) [VII-29, N2-(4-Aminosulfonylphenyl)-N4-(chroman-4-amine-6-yl)-5-fluoro-2,4-pyrimidinediamine]	
5.30	6.46		CN1C(=O)CSc2ccc(Nc3nc(Nc4cccc(S(=O)(=O)N5CCCCC5)c4)ncc3F)cc21 [VII-50, 5-Fluoro-N4-(4-methyl-3-oxo-benz[1,4]thiazin-6-yl)-N2-(3-pipendinosulfonylphenyl)-2,4-pyrimidinediamine]	
5.46	6.50		COCCOc1ccc(Nc2nc(Nc3ccc(Cl)c(S(N)(=O)=O)c3)ncc2F)cc1 [VI-111, N2-(3-Aminosulfonyl-4-chlorophenyl)-5-fluoro-N4-[4-(2-methoxyethyleneoxy)phenyl]-2,4-pyrimdinediamine]	
5.07	6.75		N4-(3-Chloro-4-cyanomethyleneoxyphenyl)-5-fluoro-N2-(5-methyl-2H-1,1-dioxide-1,2,4-benzothiadiazin-7-yl)-2,4-pyrimidinediamine [VIII-2]	
6.06	6.99		CCS(=O)(=O)N1CCc2cc(Nc3nc(Nc4cccc(S(N)(=O)=O)c4)ncc3F)ccc2C1 [VII-14, N2-(3-aminosulfonyl)phenyl-N4-[(N-ethylsulfonyl)-1,2,3,4-tetrahydroisoquinolin-6-yl]-5-fluoro-2,4-pyrimidinediamine]	
4.61	6.56		Cc1ccc(Nc2ncc(F)c(Nc3ccc4c(c3)CNCC4)n2)cc1S(N)(=O)=O [VII-16, N2-(3-Aminosulfonyl-4-methylphenyl)-5-fluoro-N4-(1,2,3,4-tetrahydroisoquin-7-yl)-2,4-pyrimidinediamine]	
	7.44		NC1CCOc2ccc(Nc3nc(Nc4cccc(S(N)(=O)=O)c4)ncc3F)cc21 (stereo not shown) [VII-28, N2-(3-Aminosulfonylphenyl)-N4-(chroman-4-amine-6-yl)-5-fluoro-2,4-pyrimidinediamine]	
5.16	6.45		CNC(=O)N1CCc2ccc(Nc3nc(Nc4ccc(C)c(S(N)(=O)=O)c4)ncc3F)cc2C1 [VII-17, N2-(3-Aminosulfonyl-4-methylphenyl)-5-fluoro-N4-[2-(methylaminocarbonyl)-1,2,3,4-tetrahydroisoquin-7-yl]-2,4-pyrimidinediamine]	
6.22	6.89		COCCn1ncc2cc(Nc3nc(Nc4cccc(S(N)(=O)=O)c4)ncc3F)ccc21 [VII-23, N2-(3-Aminosulfonylphenyl)-5-fluoro-N4-[1-(2-methoxyethyl)indazolin-5-yl]-2,4-pyrimidinediamine]	
	6.71		C#CCOc1ccc(Nc2nc(Nc3ccc(C)c(S(=O)(=O)NC4CCN(C)CC4)c3)ncc2F)cc1 [VI-69, 5-Fluoro-N2-{[4-methyl-3-((1-methylpiperidin-4-yl)aminosulfonyl)]phenyl} N4-[4-(prop-2-ynyloxy)phenyl]-2,4-pyrimidinediamine]	
